Where two headings read alike, the source gives them in different places.
System: SARS-CoV-2 strain USA-WA1/2020
Experiment: microbe, parasite or virus in culture
Format: cell-based
Conditions: read-out: EC50, uM (Hela)
[1] = Severe acute respiratory syndrome coronavirus 2, HeLa-ACE2, 24 h, HeLa-ACE2 cells, SARS-CoV-2 infection, 24 h, class symbols
[2] = Severe acute respiratory syndrome coronavirus 2, HeLa-ACE2, 24 h, HeLa-ACE2 cells, SARS-CoV-2 infection, 24 h

| SMILES | EC50 [1] [µM] | EC50 [2] [µM] | other results |
| --- | --- | --- | --- |
| CC(C)CC[C@H](NC(=O)c1cc2cc(F)ccc2[nH]1)C(=O)N[C@@H](C[C@@H]1CCNC1=O)C(=O)COc1c(F)c(F)cc(F)c1F [Compound 11, 5-fluoro-N-((S)-5-methyl-1-oxo-1-(((S)-3-oxo-1-((S)-2-oxopyrrolidin-3-yl)-4-(2,3,5,6-tetrafluorophenoxy)butan-2-yl)amino)hexan-2-yl)-1H-indole-2-carboxamide] | 0.2 to 0.5 | – | – |
| O=C1NCC[C@H]1C[C@H](NC(=O)[C@@H]1CC2(CC2)CN1C(=O)[C@H](O)C/C=C/c1ccc(F)cc1)C(=O)COC(F)(F)F [Compound 667, (S)-5-((R,E)-5-(4-fluorophenyl)-2-hydroxypent-4-enoyl)-N-((S)-3-oxo-1-((S)-2-oxopyrrolidin-3-yl)-4-(trifluoromethoxy)butan-2-yl)-5-azaspiro[2.4]heptane-6-carboxamide] | – | 0.05 to 0.2 | – |
| CC[C@@H](O)C(=O)N1[C@H](C(=O)N[C@@H](C[C@@H]2CCNC2=O)C(=O)COC(F)(F)F)C[C@@H]2CCCC[C@@H]21 [Compound 373, (2S,3aS,7aS)-1-((R)-2-hydroxybutanoyl)-N-((S)-3-oxo-1-((S)-2-oxopyrrolidin-3-yl)-4-(trifluoro-methoxy)butan-2-yl)octahydro-1H-indole-2-carboxamide] | 0.2 to 0.5 | – | – |
| CC(F)(F)CCC(=O)N1CC2(CC2)C[C@@H]1C(=O)N[C@H](C[C@@H]1CCNC1=O)C(=O)COC(F)(F)F [Compound 750, (R)-5-(4,4-difluoropentanoyl)-N-((R)-3-oxo-1-((S)-2-oxopyrrolidin-3-yl)-4-(trifluoromethoxy)butan-2-yl)-5-azaspiro[2.4]heptane-6-carboxamide] | – | 0.05 to 0.2 | – |
| O=C(NC1CC1)C(=O)N[C@@H](CC1CC1)C(=O)N[C@@H](C[C@@H]1CCNC1=O)C(=O)COC(F)(F)F [Compound 586, N1-cyclopropyl-N2-((S)-3-cyclopropyl-1-oxo-1-(((S)-3-oxo-1-((S)-2-oxopyrrolidin-3-yl)-4-(trifluoromethoxy)butan-2-yl)amino)propan-2-yl)oxalamide] | – | < 0.05 | – |
| O=C1NCC[C@H]1C[C@H](NC(=O)[C@@H]1CC2(CC2)CN1C(=O)[C@@H]1C[C@H]1C(F)(F)F)C(=O)COC(F)(F)F [Compound 718, (S)-N-((S)-3-oxo-1-((S)-2-oxopyrrolidin-3-yl)-4-(trifluoromethoxy)butan-2-yl)-5-((1R,2R)-2-(trifluoromethyl)cyclopropane-1-carbonyl)-5-azaspiro[2.4]heptane-6-carboxamide] | – | < 0.05 | – |
| CC(C)(C)NC(=O)C(=O)N1[C@@H]2C[C@@H]2C[C@H]1C(=O)N[C@@H](C[C@@H]1CCNC1=O)C(=O)COC(F)(F)F [Compound 521] | – | 0.2 to 0.5 | – |
| Cc1cc(C(=O)N[C@@H](CC(C)C)C(=O)N[C@@H](C[C@@H]2CCNC2=O)C(=O)COc2c(F)c(F)cc(F)c2F)no1 [Compound 114, 5-methyl-N-((S)-4-methyl-1-oxo-1-(((S)-3-oxo-1-((S)-2-oxopyrrolidin-3-yl)-4-(2,3,5,6-tetrafluorophenoxy)butan-2-yl)amino)pentan-2-yl)isoxazole-3-carboxamide] | 0.5 to 1 | – | – |
| CC1(C[C@H](NC(=O)C(=O)NC23CC(F)(C2)C3)C(=O)N[C@@H](C[C@@H]2CCNC2=O)C(=O)COC(F)(F)F)CC1 [Compound 582, N1-(3-fluorobicyclo-[1.1.1]pentan-1-yl)-N2-((S)-3-(l-methyl-cyclopropyl)-1-oxo-1-(((S)-3-oxo-1-((S)-2-oxopyrrolidin-3-yl)-4-(trifluoromethoxy)butan-2-yl)amino)propan-2-yl)oxalamide] | – | < 0.05 | – |
| O=C(NC1CCNCC1)C(=O)N[C@@H](CC1CC1)C(=O)N[C@@H](C[C@@H]1CCNC1=O)C(=O)COC(F)(F)F [Compound 232, N1-((S)-3-cyclopropyl-1-oxo-1-(((S)-3-oxo-1-((S)-2-oxopyrrolidin-3-yl)-4-(trifluoromethoxy)butan-2-yl)amino)propan-2-yl)-N2-(piperidin-4-yl)oxalamide] | – | – | EC50 (Severe acute respiratory syndrome coronavirus 2, HeLa-ACE2, 24 h, HeLa-ACE2 cells, SARS-CoV-2 infection, 24 h, bound printed in cell): > 1 µM |
| O=C(Nc1ccccc1Cl)C(=O)N[C@@H](CC1CCCCC1)C(=O)N[C@@H](C[C@@H]1CCNC1=O)C(=O)COc1c(F)c(F)cc(F)c1F [Compound 92, N1-(2-chlorophenyl)-N2-((S)-3-cyclohexyl-1-oxo-1-(((S)-3-oxo-1-((S)-2-oxopyrrolidin-3-yl)-4-(2,3,5,6-tetrafluorophenoxy)butan-2-yl)amino)propan-2-yl)oxalamide] | < 0.05 | – | – |
| COc1cccc(OC)c1NC(=O)C(=O)N[C@@H](CC(C)C)C(=O)N[C@@H](C[C@@H]1CCNC1=O)C(=O)COC(F)(F)F [Compound 164, N1-(2,6-dimethoxyphenyl)-N2-((S)-4-methyl-1-oxo-1-(((S)-3-oxo-1-((S)-2-oxopyrrolidin-3-yl)-4-(trifluoromethoxy)butan-2-yl)amino)pentan-2-yl)oxalamide] | < 0.05 | – | – |
| CC1(C)[C@@H]2[C@@H](C(=O)N[C@@H](C[C@@H]3CCNC3=O)C(=O)COC(F)(F)F)N(C(=O)c3cc(C(F)(F)F)on3)C[C@@H]21 [Compound 283, (1R,2S,5S)-6,6-dimethyl-N-((S)-3-oxo-1-((S)-2-oxopyrrolidin-3-yl)-4-(trifluoromethoxy)butan-2-yl)-3-(5-(trifluoromethyl)-isoxazole-3-carbonyl)-3-azabicyclo[3.1.0]-hexane-2-carboxamide] | < 0.05 | – | – |
| CC(C)(C)C[C@H](NC(=O)C(=O)Nc1cccc(C(F)(F)F)n1)C(=O)N[C@@H](C[C@@H]1CCCNC1=O)C(=O)CO [Compound 742, N1-((S)-1-(((S)-4-hydroxy-3-oxo-1-((S)-2-oxopiperidin-3-yl)butan-2-yl)amino)-4,4-dimethyl-1-oxopentan-2-yl)-N2-(6-(trifluoromethyl)pyridin-2-yl)oxalamide] | – | 0.2 to 0.5 | – |
| CC(=O)N1CCC(NC(=O)C(=O)N[C@@H](CC(C)C)C(=O)N[C@@H](C[C@@H]2CCNC2=O)C(=O)COc2c(F)c(F)cc(F)c2F)CC1 [Compound 140, Nl-(l-acetylpiperidin-4-yl)-N2-((S)-4-methyl-1-oxo-1-(((S)-3-oxo-1-((S)-2-oxopyrrolidin-3-yl)-4-(2,3,5,6-tetrafluorophenoxy)butan-2-yl)amino)pentan-2-yl)oxalamide] | – | – | EC50 (Severe acute respiratory syndrome coronavirus 2, HeLa-ACE2, 24 h, […], cells given as a bound): > 1 µM |
| COc1cccc2[nH]c(C(=O)N[C@@H](CC(C)C)C(=O)N[C@@H](C[C@@H]3CCNC3=O)C(=O)COc3c(F)cccc3F)cc12 [Compound 2] | – | – | EC50 (HeLa-ACE2 cells, SARS-CoV-2 infection, 24 h, class symbols): 0.5 to 1 µM |
| CC(C)C[C@H](NC(=O)C(=O)Nc1c(F)cccc1F)C(=O)N[C@@H](C[C@@H]1CCNC1=O)C(=O)COc1c(F)c(F)cc(F)c1F [Compound 47, N1-(2,6-difluorophenyl)-N2-((S)-4-methyl-1-oxo-1-(((S)-3-oxo-1-((S)-2-oxopyrrolidin-3-yl)-4-(2,3,5,6-tetrafluorophenoxy)butan-2-yl)amino)pentan-2-yl)oxalamide] | < 0.05 | – | – |
| CC(C)C[C@H](NC(=O)c1cc2cc(F)ccc2[nH]1)C(=O)N[C@@H](C[C@@H]1CCNC1=O)C(=O)COc1c(F)c(F)cc(F)c1F [Compound 16, 5-fluoro-N-((S)-4-methyl-1-oxo-1-(((S)-3-oxo-1-((S)-2-oxopyrrolidin-3-yl)-4-(2,3,5,6-tetrafluorophenoxy)butan-2-yl)amino)pentan-2-yl)-1H-indole-2-carboxamide] | 0.05 to 0.2 | – | – |
| CC(C)C[C@H](C)C(=O)N1CC2(CC2)C[C@H]1C(=O)N[C@@H](C[C@@H]1CCNC1=O)C(=O)COC(F)(F)F [Compound 748, (S)-5-((S)-2,4-dimethylpentanoyl)-N-((S)-3-oxo-1-((S)-2-oxopyrrolidin-3-yl)-4-(trifluoromethoxy)butan-2-yl)-5-azaspiro[2.4]heptane-6-carboxamide] | – | 0.05 to 0.2 | – |
| CC(C)(F)c1cc(C(=O)NC(CC2CCOCC2)C(=O)N[C@@H](C[C@@H]2CCNC2=O)C(=O)COC(F)(F)F)no1 (stereo partly drawn) [Compound 499, 5-(2-fluoropropan-2-yl)-N-(l-oxo-1-(((S)-3-oxo-1-((S)-2-oxopyrrolidin-3-yl)-4-(trifluoromethoxy)butan-2-yl)amino)-3-(tetrahydro-2H-pyran-4-yl)propan-2-yl)isoxazole-3-carboxamide] | – | 0.05 to 0.2 | – |
| O=C(NC12CC(F)(C1)C2)C(=O)N1C[C@@H]2CCC[C@@H]2[C@H]1C(=O)N[C@@H](C[C@@H]1CCNC1=O)C(=O)COC(F)(F)F [Compound 525, (1S,3aR,6aS)-2-(2-((3-fluorobicyclo[1.1.1]-pentan-1-yl)amino)-2-oxoacetyl)-N-((S)-3-oxo-1-((S)-2-oxopyrrolidin-3-yl)-4-(trifluoromethoxy)butan-2-yl)octahydrocyclo-penta[c]pyrrole-1-carboxamide] | – | < 0.05 | – |
| CC(C)C[C@H](NC(=O)C(=O)Nc1ccccc1F)C(=O)N[C@@H](C[C@@H]1CCNC1=O)C(=O)COc1cc(C(F)(F)F)on1 [Compound 141, N1-(2-fluorophenyl)-N2-((S)-4-methyl-1-oxo-1-(((S)-3-oxo-1-((S)-2-oxopyrrolidin-3-yl)-4-((5-(trifluoromethyl)isoxazol-3-yl)oxy)butan-2-yl)amino)pentan-2-yl)oxalamide] | 0.5 to 1 | – | – |
| CC(C)C[C@@H](O)C(=O)N1CCC[C@H]1C(=O)N[C@@H](C[C@@H]1CCNC1=O)C(=O)COC(F)(F)F [Compound 696, (S)-1-((R)-2-hydroxy-4-methylpentanoyl)-N-((S)-3-oxo-1-((S)-2-oxopyrrolidin-3-yl)-4-(trifluoromethoxy)butan-2-yl)pyrrolidine-2-carboxamide] | – | – | EC50 (Severe acute respiratory syndrome coronavirus 2, HeLa-ACE2, 24 h): 0.05 to 0.2 µM |
| COc1cccc(NC(=O)C(=O)N[C@@H](CC(C)C)C(=O)N[C@@H](C[C@@H]2CCNC2=O)C(=O)COc2c(F)c(F)cc(F)c2F)c1 [Compound 120, N1-(3-methoxyphenyl)-N2-((S)-4-methyl-1-oxo-1-(((S)-3-oxo-1-((S)-2-oxopyrrolidin-3-yl)-4-(2,3,5,6-tetrafluorophenoxy)butan-2-yl)amino)pentan-2-yl)oxalamide] | < 0.05 | – | – |
